Patent publication US7692014B2, “Inhibitors of the HIV integrase enzyme” (Pfizer, Inc., priority 2004, dated 2010)

What follows are compounds tested against T1, Full-length wild type HIV-1 integrase (SF1) (Human immunodeficiency virus type 1 group M subtype B, UniProt P04585) (assay: Integrase strand-transfer scintillation proximity assay). Conditions: integrase strand-transfer SPA; read-out: IC50.
T1 construct: made in house; host or cells: E. coli BL21 (DE3), pET24a vector
Type: biochemical
From the text: Integrase Strand-Transfer Scintillation Proximity Assay Oligonucleotides
The annealed product represents preprocessed viral ds-DNA derived from the LTR U5 sequence of the viral genome. A ds-DNA control to test for non-specific interactions was made using a 3′ di-deoxy derivative of oligonucleotide #1 annealed to oligonucleotide #2. The CA overhang at the 5′ end of the non-biotinylated strand of the ds-DNA was created artificially by using a complimentary DNA oligonucleotide shortened by 2 base pairs. This configuration eliminates the requisite 3′ processing step of the integrase enzyme prior to the strand-transfer mechanism.
Host ds-DNA was prepared as an unlabeled and [^3H]-thymidine labeled product from annealed oligonucleotide #3—5-[…]-3′ (SEQ ID NO: 3), and oligonucleotide #4—5′-[…]-3′ (SEQ ID NO: 4), both synthesized by TriLink BioTechnologies, Inc. (San Diego, Calif.). The annealed product had overhanging 3′ ends of poly(dA). […] The radiolabeled product was purified using a NENSORB cartridge and stored in stabilized aqueous solution (PerkinElmer).
Reagents: Streptavidin-coated polyvinyltoluene (PVT) SPA beads were purchased from Amersham Biosciences (Piscataway, N.J.). Cesium chloride was purchased from Shelton Scientific, Inc. (Shelton, Conn.). White, polystyrene, flat-bottom, non-binding surface, 96-well plates were purchased from Corning. All other buffer components were purchased from Sigma (St. Louis, Mo.) unless otherwise indicated. Enzyme Construction: Full-length wild type HIV-1 integrase (SF1) sequence (amino acids 1-288) was constructed in a pET24a vector (Novagen, Madison, Wis.). […] Enzyme Purification: Full length wild-type HIV Integrase was expressed in E.coli BL21 (DE3) cells and induced with 1 mM isopropyl-1 thio-β-D-galactopyranoside (IPTG) when cells reached an optical density between 0.8-1.0 at 600 nm. Cells were lysed by microfluidation in 50 mM HEPES pH 7.0, 75 mM NaCl, 5 mM DTT, 1 mM 4-(2-Aminoethyl)benzenesulfonylfluoride HCl (AEBSF). Lysate was then centrifuged 20 minutes at 11 k rpm in GSA rotor in Sorvall RC-5B at 4° C. Supernant was discarded and pellet resuspended in 50 mM HEPES pH 7.0, 750 mM NaCl, 5 mM DTT, 1 mM AEBSF and homogenized in a 40 mL Dounce homogenizer for 20 minutes on ice. Homogenate was then centrifuged 20 minutes at 11 k rpm in SS34 rotor in Sorvall RC-5B at 4° C. Supernant was discarded and pellet resuspended in 50 mM HEPES pH 7.0, 750 mM NaCl, 25 mM CHAPS, 5 mM DTT, 1 mM AEBSF. Preparation was then centrifuged 20 minutes at 11 k rpm in SS34 rotor in Sorvall RC-5B at 4° C.
Supernant was then diluted 1:1 with 50 mM HEPES pH 7.0, 25 mM CHAPS, 1 mM DTT, 1 mM AEBSF and loaded onto a Q-Sepharose column pre-equilibrated with 50 mM HEPES, pH 7.0, 375 mM NaCl, 25 mM CHAPS, 1 mM DTT, 1 mM AEBSF. The flow through peak was collected and NaCl diluted to 0.1 M with 50 mM HEPES pH 7.0, 25 mM CHAPS, 1 mM DTT, 0.5 mM AEBSF and loaded onto a SP-Sepharose column pre-equilibrated with 50 mM HEPES pH 7.0, 100 mM NaCl, 25 mM CHAPS, 1 mM DTT, 0.5 mM AEBSF. After washing the column with the equilibration buffer, a 100 to 400 mM NaCl gradient was run. The eluted integrase was concentrated and run on a S-300 gel diffusion column using 50 mM HEPES pH 7.0, 500 mM NaCl, 25 mM CHAPS, 1 mM DTT, 0.5 mM AEBSF. […] All columns were run in a 4° C. cold room.
Viral DNA Bead Preparation: Streptavidin-coated SPA beads were suspended to 20 mg/mL in 25 mM 3-morpholinopropanesulfonic acid (MOPS) (pH 7.2) and 1.0% NaN3.

`CC(=O)N1CCN(C(=O)c2cn(Cc3ccc(F)cc3)c3cnc4c(=O)n(O)ccc4c23)CC1` [Example 27, 1-[(4-acetylpiperazin-1-yl)carbonyl]-3-(4-fluorobenzyl)-7-hydroxy-3,7-dihydro-6H-pyrrolo[2,3-c]-1,7-naphthyridin-6-one] and `CCS(=O)(=O)N1CCN(Cc2cn(Cc3ccc(F)cc3)c3cnc4c(=O)n(O)ccc4c23)CC1` [Example 52, 1-{[4-(ethylsulfonyl)piperazin-1-yl]methyl}-3-(4-fluorobenzyl)-7-hydroxy-3,7-dihydro-6H-pyrrolo[2,3-c]-1,7-naphthyridin-6-one] are within 1.5-fold of each other in IC50: 13 nM for the first, 10.5 nM for the second.

`O=C(NCCc1cnccn1)c1cn(Cc2ccc(F)cc2)c2cnc3c(=O)n(O)ccc3c12` [Example 28, 3-(4-fluorobenzyl)-7-hydroxy-6-oxo-N-(2-pyrazin-2-ylethyl)-6,7-dihydro-3H-pyrrolo[2,3-c]-1,7-naphthyridine-1-carboxamide] and `O=C(NCc1ccccn1)c1cn(Cc2ccc(F)cc2)c2cnc3c(=O)n(O)ccc3c12` [Example 29, 3-(4-fluorobenzyl)-7-hydroxy-6-oxo-N-(pyridin-2-ylmethyl)-6,7-dihydro-3H-pyrrolo[2,3-c]-1,7-naphthyridine-1-carboxamide] are the same in IC50: 12 nM for the first, 12 nM for the second.

Compared with `O=C(NCC(F)(F)F)c1cn(Cc2ccc(F)cc2)c2cnc3c(=O)n(O)ccc3c12` [Example 30, 3-(4-fluorobenzyl)-7-hydroxy-6-oxo-N-(2,2,2-trifluoroethyl)-6,7-dihydro-3H-pyrrolo[2,3-c]-1,7-naphthyridine-1-carboxamide], `CCCNCc1cn(Cc2ccc(F)cc2)c2cnc3c(=O)n(O)ccc3c12` [Example 40, 3-(4-fluorobenzyl)-7-hydroxy-1-[(propylamino)methyl]-3,7-dihydro-6H-pyrrolo[2,3-c]-1,7-naphthyridin-6-one] is 4.8-fold higher in IC50: 13 nM for the first, 62 nM for the second. The first is the more potent here.

First: O=c1c2ncc3c(c(COC[C@@H](O)CO)cn3Cc3ccc(F)cc3)c2ccn1O [Example 31, 1-({[(2S)-2,3-dihydroxypropyl]oxy}methyl)-3-(4-fluorobenzyl)-7-hydroxy-3,7-dihydro-6H-pyrrolo(2,3-c]-1,7-naphthyridin-6-one]
Second: COCCOCc1cn(Cc2ccc(F)cc2)c2cnc3c(=O)n(O)ccc3c12 [Example 36, 3-(4-fluorobenzyl)-7-hydroxy-1-[(2-methoxyethoxy)methyl]-3,7-dihydro-6H-pyrrolo[2,3-c]-1,7-naphthyridin-6-one]
The IC50 of the first is 2.2-fold lower: 9 nM for the first, 20 nM for the second. The first is the more potent here.

Going from `CC(C)(C)OC(=O)N1CCC(COCc2cn(Cc3ccc(F)cc3)c3cnc4c(=O)n(O)ccc4c23)CC1` [Example 32] to `O=c1c2ncc3c(c(CN4CCC(O)CC4)cn3Cc3ccc(F)cc3)c2ccn1O` [Example 53, 3-(4-fluorobenzyl)-7-hydroxy-1-[(4-hydroxypiperidin-1-yl)methyl]-3,7-dihydro-6H-pyrrolo[2,3-c]-1,7-naphthyridin-6-one], the IC50 falls from 108 nM to 7 nM (15-fold). The second is the more potent here.

`O=c1c2ncc3c(c(COCCc4ccccn4)cn3Cc3ccc(F)cc3)c2ccn1O` [Example 33, 3-(4-fluorobenzyl)-7-hydroxy-1-[(2-pyridin-2-ylethoxy)methyl]-3,7-dihydro-6H-pyrrolo[2,3-c]-1,7-naphthyridin-6-one] and `O=c1c2ncc3c(c(CNCc4ccccn4)cn3Cc3ccc(F)cc3)c2ccn1O` [Example 44] are within 1.5-fold of each other in IC50: 26 nM for the first, 31 nM for the second.

Compared with `O=c1c2ncc3c(c(COCCOC4CCCCC4)cn3Cc3ccc(F)cc3)c2ccn1O` [Example 34, 1-{[2-(cyclohexyloxy)ethoxy]methyl}-3-(4-fluorobenzyl)-7-hydroxy-3,7-dihydro-6H-pyrrolo[2,3-c]-1,7-naphthyridin-6-one], `O=c1c2ncc3c(c(COC4CCOCC4)cn3Cc3ccc(F)cc3)c2ccn1O` [Example 37, 3-(4-fluorobenzyl)-7-hydroxy-1-[(tetrahydro-2H-pyran-4-yloxy)methyl]-3,7-dihydro-6H-pyrrolo[2,3-c]-1,7-naphthyridin-6-one] is 2-fold lower in IC50: 45 nM for the first, 23 nM for the second.

Going from `O=c1c2ncc3c(c(CNC4(CO)CCCC4)cn3Cc3ccc(F)cc3)c2ccn1O` [Example 39, 3-(4-fluorobenzyl)-7-hydroxy-1-({[1-(hydroxymethyl)cyclopentyl]amino)methyl)-3,7-dihydro-6H-pyrrolo[2,3-c]-1,7-naphthyridin-6-one] to `O=c1c2ncc3c(c(CN4CCCCC4CO)cn3Cc3ccc(F)cc3)c2ccn1O` (stereo not shown) [Example 49, 3-(4-fluorobenzyl)-7-hydroxy-1-{[2-(hydroxymethyl)piperidin-1-yl]methyl}-3,7-dihydro-6H-pyrrolo[2,3-c]-1,7-naphthyridin-6-one], the IC50 falls from 79 nM to 13 nM (6.1-fold).

Going from `Cc1cccc(CNCc2cn(Cc3ccc(F)cc3)c3cnc4c(=O)n(O)ccc4c23)c1` [Example 41, 3-(4-fluorobenzyl)-7-hydroxy-1-{[(3-methylbenzyl)amino]methyl}-3,7-dihydro-6H-pyrrolo[2,3-c]-1,7-naphthyridin-6-one] to `O=c1c2ncc3c(c(CNCc4ccc(C(F)(F)F)cc4)cn3Cc3ccc(F)cc3)c2ccn1O` [Example 43, 3-(4-fluorobenzyl)-7-hydroxy-1-({[4-(trifluoromethyl)benzyl]amino}methyl)3,7-dihydro-6H-pyrrolo[2,3-c]-1,7-naphthyridin-6-one], the IC50 rises from 42 nM to 122 nM (2.9-fold). The first is the more potent here.

Going from `Cc1cnc(CNCc2cn(Cc3ccc(F)cc3)c3cnc4c(=O)n(O)ccc4c23)cn1` [Example 42, 3-(4-fluorobenzyl)-7-hydroxy-1-({[(5-methylpyrazin-2-yl)methyl]amino)methyl)-3,7-dihydro-6H-pyrrolo[2,3-c]-1,7-naphthyridin-6-one] to `CCN(Cc1ccc(C)cc1)Cc1cn(Cc2ccc(F)cc2)c2cnc3c(=O)n(O)ccc3c12` [Example 51, 1-{[ethyl(4-methylbenzyl)amino]methyl}-3-(4-fluorobenzyl)-7-hydroxy-3,7-dihydro-6H-pyrrolo[2,3-c]-1,7-naphthyridin-6-one], the IC50 falls from 54 nM to 17.5 nM (3.1-fold). The second is the more potent here.

First: O=C1c2ncc3c(ccn3Cc3ccc(F)cc3)c2CCCN1O [Example 45, 3-(4-fluorobenzyl)-7-hydroxy-7,8,9,10-tetrahydropyrrolo[3′,2′: 4,5]pyrido[2,3-c]azepin-6(3H)-one]
Second: Cc1cc2c(ncc3c2ccn3Cc2ccc(F)cc2)c(=O)n1O [Example 47, 3-(4-fluorobenzyl)-7-hydroxy-8-methyl-3,7-dihydro-6H-pyrrolo[2,3-c]-1,7-naphthyridin-6-one]
The IC50 of the first is 2.2-fold higher: 24 nM for the first, 11 nM for the second.

Compared with `CCCCc1cc2c(ncc3c2ccn3Cc2ccc(F)cc2)c(=O)n1O` [Example 46, 8-butyl-3-(4-fluorobenzyl)-7-hydroxy-3,7-dihydro-6H-pyrrolo[2,3-c]-1,7-naphthyridin-6-one], `CCCN(CCO)Cc1cn(Cc2ccc(F)cc2)c2cnc3c(=O)n(O)ccc3c12` [Example 48, 3-(4-fluorobenzyl)-7-hydroxy-1-{[(2-hydroxyethyl)(propyl)amino]methyl}-3,7-dihydro-6H-pyrrolo[2,3-c]-1,7-naphthyridin-6-one] is 4.5-fold lower in IC50: 49 nM for the first, 11 nM for the second.

`CCN(CC)CCN(CC)Cc1cn(Cc2ccc(F)cc2)c2cnc3c(=O)n(O)ccc3c12` [Example 50, 1-{[[2-(diethylamino)ethyl] (ethyl)amino]methyl}-3-(4-fluorobenzyl)-7-hydroxy-3,7-dihydro-6H-pyrrolo[2,3-c]-1,7-naphthyridin-6-one] showed an IC50 of 11.5 nM.
